These results are taken from patent US9278994B2, “Short antimicrobial lipopeptides” (Helix BioMedix Inc., priority 2012, dated 2016).

Experiment [1] relates to P. acnes, S. aureus, E. coli and C. albicans. Briefly: MIC / antimicrobial activity. Format: cell-based. The note with it: summary of MIC results of Table 1. On the procedure:
(§1) 2. Bacterial strains and culture conditions. E. coli UB1005, S. aureus SAP0017 (MRSA) and C. albicans 105 were grown in Mueller Hinton (MH) (Difco, BD Biosciences, MD) agar plates and broth (2 g of beef extract, 17.5 g of acid hydrolysis of casein and 1.5 g of starch per liter) at 37° C. unless otherwise indicated. Bacteria from frozen stock were subcultured onto freshly made MH agar plates prior to susceptibility testing. For P. acnes, the bacterium was grown in BBL™ Brain-Heart infusion (Becton, Dickinson & Company, Sparks Md.) broth or agar plates at 37° C. in anaerobic condition generated using a anaerobic jar and AnaeroGen™ (Oxoid, Basingstoke, Hampshire, England).
(§2) 3. […] The minimal inhibitory concentration (MIC) of each peptide was determined using modified CLSI microtiter broth dilution assay (Methods for Dilution Antimicrobial Susceptibility Tests for Bacteria That Grow Aerobically; Approved Standard—Ninth Edition). An inoculum of 10^5-10^6 colony forming units (CFU)/ml was used or 10^4 CFU/ml for yeast. The MIC value was taken as the lowest peptide concentration at which more than 90% of microbial growth was inhibited after 15 to 20 h of incubation at 37° C. For P. acnes, the incubation was kept under anaerobic condition at 37° C. for 2 weeks before MIC was determined Kill kinetics was performed using a given concentration (about 2-5-fold MIC) of peptide mixed with indicator microorganism. After appropriate dilution the cells were plated on agar plates after defined time intervals and incubated at 37° C. overnight. In the case of P. acnes an extended incubation period was required. The CFU was counted and plotted as survival of bacteria after peptide treatment over time, which indicates the effectiveness of a peptide to kill a microbe.

Another experiment concerns S. aureus SAP0017 (MRSA). On the procedure:
(§3) We conducted the minimal inhibitory concentration (MIC) determination using CLSI (Clinical and Laboratory standard Institute) recommended standard protocol for antimicrobials (Methods for Dilution Antimicrobial Susceptibility Tests for Bacteria That Grow Aerobically; Approved Standard—Ninth Edition).
as §1, §2

Another experiment has as its system C. albicans 105. On the procedure: as §3, §1, §2
In a further experiment the test system is E. coli UB1005. On the procedure:
as §3, §1, §2

Another experiment deals with P. acnes. Format: cell-based, Propionibacterium acnes. On the procedure: as §1, §2

Each structure is given as a SMILES string. Converted amounts (≈) assume the structure as drawn. Where a SMILES comes first, the peptide text is derived from it. [ ]: non-standard residue; d: D form. The star is where a group is joined. Stearoyl = CCCCCCCCCCCCCCCCCC(=O)*; Palmitoyl = CCCCCCCCCCCCCCCC(=O)*; Myristoyl = CCCCCCCCCCCCCC(=O)*; Decanoyl = CCCCCCCCCC(=O)*; Octanoyl = CCCCCCCC(=O)* Bounds are passed on as bounds.

Take `CCCCCCCCCCCCCCCC(=O)N[C@@H](CCCCN)C(=O)N[C@@H](CCCNC(=N)N)C(=O)O` [HB2253, Pal-KR-OH] (Palmitoyl-Lys-Arg-OH): the “antimicrobial activity (in words)” value in experiment [1] is on record as “broad spectrum antimicrobial activity”. Moreover, in the experiment with S. aureus SAP0017 (MRSA), the “MIC S. aureus” value was 16 µg/mL (≈ 0.0296 mM). Besides, the “MIC C. albicans” value in the experiment with C. albicans 105 was 32 µg/mL (≈ 0.0592 mM). In the experiment with E. coli UB1005, the “MIC E. coli” value was found to be 500 µg/mL (≈ 0.925 mM). The “MIC P. acnes” value against P. acnes lay in the range of 2 to 4 µg/mL.

With `CCCCCCCCCCCCCCCC(=O)N[C@@H](CCCCN)C(=O)N[C@@H](CC(C)C)C(N)=O` [HB2244, Pal-KL-NH2] (Palmitoyl-Lys-Leu-NH2), the “antimicrobial activity (in words)” value in experiment [1] is given as “more Gram-positive selective activity”. Further, the “MIC S. aureus” value in the experiment with S. aureus SAP0017 (MRSA) came out at 250 µg/mL (≈ 0.503 mM). Besides, in the experiment with C. albicans 105, the “MIC C. albicans” value was above 2000 µg/mL. In the experiment on E. coli UB1005, the “MIC E. coli” value was above 2000 µg/mL. Besides, in the experiment on P. acnes, the “MIC P. acnes” value was 8 µg/mL (≈ 0.0161 mM).

For `CCCCCCCCCCCCCCCC(=O)N[C@@H](CCCCN)C(=O)NCC(N)=O` [HB2243, Pal-KG-NH2] (Palmitoyl-Lys-Gly-NH2), the “antimicrobial activity (in words)” value in experiment [1] is “more Gram-positive selective activity”. The “MIC S. aureus” value in the experiment on S. aureus SAP0017 (MRSA) came to 250 µg/mL (≈ 0.567 mM). Also, the “MIC C. albicans” value against C. albicans 105 is above 2000 µg/mL. Further, the “MIC E. coli” value against E. coli UB1005 is above 2000 µg/mL. Further, in the experiment on P. acnes, the “MIC P. acnes” value was in the range of 32 to 64 µg/mL.

On to `CCCCCCCCCCCCCCCC(=O)N1CCC[C@H]1C(=O)N[C@@H](CCCCN)C(=O)O` [HB2255, Pal-PK-OH] (Palmitoyl-Pro-Lys-OH), for which the “antimicrobial activity (in words)” value in experiment [1] was “inactive”. Besides, the “MIC S. aureus” value against S. aureus SAP0017 (MRSA) is above 2000 µg/mL. For the same molecule, in the experiment on C. albicans 105, the “MIC C. albicans” value was above 2000 µg/mL. The “MIC E. coli” value against E. coli UB1005 is above 2000 µg/mL. Further, the “MIC P. acnes” value in the experiment with P. acnes was above 2000 µg/mL.

On to `CCCCCCCCCCCCCCCC(=O)N[C@@H](CCCCN)C(=O)N[C@H](C(N)=O)[C@@H](C)CC` [HB2246, Pal-KI-NH2], for which, in experiment [1], the “antimicrobial activity (in words)” value is given as “more Gram-positive selective activity”. Further, in the experiment with S. aureus SAP0017 (MRSA), the “MIC S. aureus” value came to 128 µg/mL (≈ 0.258 mM). Moreover, the “MIC C. albicans” value against C. albicans 105 is above 2000 µg/mL. The “MIC E. coli” value against E. coli UB1005 was above 2000 µg/mL. Further, the “MIC P. acnes” value against P. acnes is above 2000 µg/mL.

As for `CCCCCCCCCCCCCCCC(=O)N[C@@H](CCCCN)C(=O)N1CCC[C@H]1C(=O)N[C@H](C(=O)O)C(C)C` [HB2184, Pal-KPV-OH] (Palmitoyl-Lys-Pro-Val-OH), the “antimicrobial activity (in words)” value in experiment [1] was “less active or inactive”. In addition, the “MIC S. aureus” value in the experiment on S. aureus SAP0017 (MRSA) was above 2000 µg/mL. In the experiment on C. albicans 105, the “MIC C. albicans” value is above 2000 µg/mL. In addition, the “MIC E. coli” value in the experiment on E. coli UB1005 was above 2000 µg/mL. The “MIC P. acnes” value against P. acnes stood at 8 µg/mL (≈ 0.0138 mM).

With `CCCCCCCCCCCCCCCCCC(=O)N[C@@H](CCCCN)C(=O)N1CCC[C@@H]1C(=O)N[C@H](C(N)=O)[C@@H](C)O` [HB2201, Stearoyl-K-dPT-NH2] (Stearoyl-Lys-[dP]-Thr-NH2), the “MIC S. aureus” value against S. aureus SAP0017 (MRSA) was 16 µg/mL (≈ 0.0262 mM). The “MIC C. albicans” value in the experiment with C. albicans 105 amounted to 8 µg/mL (≈ 0.0131 mM). The “MIC E. coli” value against E. coli UB1005 was found to be 128 µg/mL (≈ 0.21 mM). The “MIC P. acnes” value with P. acnes lay in the range of 1 to 2 µg/mL.

Consider `CCCCCCCCCCCCCCCC(=O)N1CCC[C@H]1C(=O)N[C@H](C(N)=O)C(C)C` [HB2205, Pal-PV-NH2] (Palmitoyl-Pro-Val-NH2), for which the “MIC S. aureus” value against S. aureus SAP0017 (MRSA) is above 2000 µg/mL. Besides, the “MIC C. albicans” value with C. albicans 105 is above 2000 µg/mL. Further, the “MIC E. coli” value with E. coli UB1005 was above 2000 µg/mL. Further, the “MIC P. acnes” value with P. acnes was above 2000 µg/mL.

As to `CCCCCCCCCCCCCC(=O)N[C@@H](CCCCN)C(=O)N1CCC[C@@H]1C(=O)N[C@H](C(N)=O)[C@@H](C)O` [HB2198, Myristoyl-KdPT-NH2] (Myristoyl-Lys-[dP]-Thr-NH2), the “MIC S. aureus” value with S. aureus SAP0017 (MRSA) came out at 64 µg/mL (≈ 0.116 mM). The “MIC C. albicans” value in the experiment on C. albicans 105 was 64 µg/mL (≈ 0.116 mM). In the experiment with E. coli UB1005, the “MIC E. coli” value is 128 µg/mL (≈ 0.231 mM). Also, the “MIC P. acnes” value with P. acnes lay in the range of 8 to 16 µg/mL.

For `CCCCCCCCCCCCCCCC(=O)N[C@@H](CCCCN)C(=O)N[C@@H](CO)C(N)=O` [HB2245, Pal-KS-NH2], the “MIC S. aureus” value in the experiment with S. aureus SAP0017 (MRSA) was 1000 µg/mL (≈ 2.12 mM). The “MIC C. albicans” value against C. albicans 105 was above 2000 µg/mL. Moreover, the “MIC E. coli” value in the experiment on E. coli UB1005 was above 2000 µg/mL. Further, the “MIC P. acnes” value in the experiment with P. acnes amounted to 128 µg/mL (≈ 0.272 mM).

Take `CCCCCCCCCCCCCCCC(=O)N[C@@H](CCCCN)C(=O)N[C@@H](Cc1ccc(O)cc1)C(N)=O` [HB2247, Pal-KY-NH2]: in the experiment on S. aureus SAP0017 (MRSA), the “MIC S. aureus” value is above 2000 µg/mL. For the same molecule, the “MIC C. albicans” value against C. albicans 105 is above 2000 µg/mL. The “MIC E. coli” value in the experiment with E. coli UB1005 is above 2000 µg/mL. In addition, the “MIC P. acnes” value with P. acnes is above 2000 µg/mL.

Consider `CCCCCCCCCCCCCCCC(=O)N[C@@H](CCCCN)C(=O)N1CCC[C@H]1C(=O)O` [HB2257, Pal-KP-OH] (Palmitoyl-Lys-Pro-OH), for which, in experiment [1], the “antimicrobial activity (in words)” value was “inactive”. In the experiment on S. aureus SAP0017 (MRSA), the “MIC S. aureus” value was above 2000 µg/mL. Moreover, in the experiment on C. albicans 105, the “MIC C. albicans” value is above 2000 µg/mL. Besides, in the experiment on E. coli UB1005, the “MIC E. coli” value is above 2000 µg/mL. In the experiment with P. acnes, the “MIC P. acnes” value is above 2000 µg/mL.

Take `CCCCCCCCCC(=O)N[C@@H](CCCCN)C(=O)N1CCC[C@@H]1C(=O)N[C@H](C(=O)O)[C@@H](C)O` [HB2183, Dec-KdPT-OH] (Decanoyl-Lys-[dP]-Thr-OH): the “MIC S. aureus” value with S. aureus SAP0017 (MRSA) is above 2000 µg/mL. In the experiment on C. albicans 105, the “MIC C. albicans” value was above 2000 µg/mL. Moreover, the “MIC E. coli” value in the experiment on E. coli UB1005 was above 2000 µg/mL. Also, the “MIC P. acnes” value against P. acnes was above 2000 µg/mL.

As for `CCCCCCCCCCCCCCCC(=O)N[C@@H](CCCCN)C(=O)N1CCC[C@@H]1C(=O)N[C@H](C(=O)O)[C@@H](C)O` [HB2182, Pal-KdPT-OH] (Palmitoyl-Lys-[dP]-Thr-OH), the “antimicrobial activity (in words)” value in experiment [1] is “less active or inactive”. The “MIC S. aureus” value against S. aureus SAP0017 (MRSA) was above 2000 µg/mL. Further, the “MIC C. albicans” value against C. albicans 105 was above 2000 µg/mL. Also, the “MIC E. coli” value in the experiment with E. coli UB1005 is above 2000 µg/mL. Also, the “MIC P. acnes” value in the experiment on P. acnes was 32 µg/mL (≈ 0.0549 mM).

With `CCCCCCCC(=O)N[C@@H](CCCCN)C(=O)N1CCC[C@@H]1C(=O)N[C@H](C(N)=O)[C@@H](C)O` [HB2195, Octanoyl-KdPT-NH2] (Octanoyl-Lys-[dP]-Thr-NH2), the “MIC S. aureus” value against S. aureus SAP0017 (MRSA) was above 2000 µg/mL. Besides, the “MIC C. albicans” value in the experiment on C. albicans 105 is above 2000 µg/mL. For the same molecule, in the experiment with E. coli UB1005, the “MIC E. coli” value is above 2000 µg/mL. Further, the “MIC P. acnes” value against P. acnes is above 2000 µg/mL.

With `CCCCCCCCCCCCCCCC(=O)N[C@@H](CCCCN)C(=O)N1CCC[C@@H]1C(=O)N[C@H](C(N)=O)[C@@H](C)O` [HB2200, Pal-K-dPT-NH2] (Palmitoyl-Lys-[dP]-Thr-NH2), the “MIC S. aureus” value against S. aureus SAP0017 (MRSA) was 4 µg/mL (≈ 0.00687 mM). For the same molecule, in the experiment on C. albicans 105, the “MIC C. albicans” value came out at 16 µg/mL (≈ 0.0275 mM). For the same molecule, the “MIC E. coli” value in the experiment with E. coli UB1005 was determined as 64 µg/mL (≈ 0.11 mM). Moreover, the “MIC P. acnes” value against P. acnes was 2 µg/mL (≈ 0.00344 mM).
